Read-outs that look alike come from different tables or passages of the source.
What was measured:
SARS-CoV-2 3CL-protease = SARS-CoV-2 3CL-protease (Severe acute respiratory syndrome coronavirus 2 (2019-nCoV) (SARS-CoV-2), UniProt P0DTD1); experiment: SARS-CoV-2 3C-Like (3CL) Protease Fluorescence Assay (FRET); format: biochemical
[1] = system: 229E human corona virus (hCoV); experiment: 229E Live Virus Assay (MRC-5 cells, CPE, ATPlite readout); format: cell-based, hCoV-229E; details: read-out: 229E EC50
[2] = Human coronavirus 229E, MRC5, 144 h
[3] = Human coronavirus 229E, MRC5, 144 h, MRC-5 cells, hCoV-229E MOI 0.05, 6 days at 34° C., ATPlite, duplicate, ranges defined in μM

Row | SMILES | IC50 (SARS-CoV-2 3CL-protease) [µM] | EC50 [1, 2] [µM] | other results
1 | CN(C(=O)[C@H](CC1CC1)NC(=O)c1cc2c(F)cc(F)c(F)c2[nH]1)[C@@H](CC(C)(C)C)C(=O)N1C[C@]2(C[C@H]1C#N)C(=O)Nc1ccccc12 [Example 126] | < 0.1 |  | 
2 | CC(C)[C@H](NC(=O)OC(C)(C)C)C(=O)N(C)[C@@H](Cc1ccccc1)C(=O)N1C[C@]2(C[C@H]1C#N)C(=O)Nc1ccccc12 [Example 47] | < 0.1 | < 0.1 | 
3 | CC(C)[C@@H](NC(=O)c1cc2c(F)cc(F)c(F)c2[nH]1)C(=O)N[C@@H](CC(C)(C)C)C(=O)N1C[C@]2(C[C@H]1C#N)C(=O)Nc1ccccc12 [Example 93] | > 1 | > 1 | 
4 | CC(C)(C)C[C@H](NC(=O)[C@H](CC1CC1)n1cc(C2CC2)nn1)C(=O)N1C[C@]2(C[C@H]1C#N)C(=O)Nc1ccccc12 [Example 53] | < 0.1 |  | 
5 | CC(C)(C)C[C@H](NC(=O)[C@H](CC1CC1)NC(=O)C1(c2ccccc2)CC1)C(=O)N1C[C@]2(C[C@H]1C#N)C(=O)Nc1ccccc12 [Example 71] | < 0.1 |  | 
6 | CC(C)(C)C(NS(=O)(=O)c1ccccc1)C(=O)N1CCC[C@H]1C(=O)N1C[C@]2(C[C@H]1C#N)C(=O)Nc1ccccc12 (stereo partly drawn) [Example 57] | > 1 | > 1 | 
7 | CC(C)[C@H](NC(=O)c1cc(F)c(F)c(F)c1)C(=O)N(C)[C@@H](CC(C)(C)C)C(=O)N1C[C@]2(C[C@H]1C#N)C(=O)Nc1ccccc12 [Example 108] | < 0.1 | 0.1 to 1 | 
8 | CC(C)(C)C[C@H](NC(=O)[C@H](CC1CC1)NC(=O)OCc1ccccc1)C(=O)N1C[C@]2(C[C@H]1C#N)C(=O)Nc1ccccc12 [Example 94] | < 0.1 | < 0.1 | 
9 | CC(C)OC(=O)N[C@@H](CC1CC1)C(=O)N(C)[C@@H](CC(C)(C)C)C(=O)N1C[C@]2(C[C@H]1C#N)C(=O)Nc1ccccc12 [Example 121] | < 0.1 | < 0.1 | 
10 | CC(=O)N[C@@H](C)C(=O)N(C)[C@@H](CC(C)(C)C)C(=O)N1C[C@]2(C[C@H]1C#N)C(=O)Nc1ccccc12 [Example 129] | < 0.1 |  | 
11 | CN(C(=O)[C@H](Cc1ccc(F)cc1)NC(=O)N1CCOCC1)[C@@H](CC(C)(C)C)C(=O)N1C[C@]2(C[C@H]1C#N)C(=O)Nc1ccccc12 [Example 68] | < 0.1 | < 0.1 | 
12 | CC(C)(C)C(NC(=O)C(F)(F)F)C(=O)N1CCC[C@H]1C(=O)N1C[C@]2(C[C@H]1C#N)C(=O)Nc1ccccc12 (stereo partly drawn) [Example 102] | > 1 |  | 
13 | CC(C)C[C@@H](C(=O)N1C[C@]2(C[C@H]1C#N)C(=O)Nc1ccccc12)N(C)C(=O)[C@H](CC(C)(C)C)N(C)C(=O)OCc1ccccc1 [Example 32] | < 0.1 | < 0.1 | 
14 | [2H]C([2H])([2H])N(C(=O)[C@H](CC1CC1)NC(=O)C(F)(F)F)[C@@H](Cc1ccc(F)cc1)C(=O)N1C[C@]2(C[C@H]1C#N)C(=O)Nc1ccccc12 [Example 74] | < 0.1 | < 0.1 | 
15 | CC(C)C[C@@H](C(=O)N1C[C@]2(C[C@H]1C#N)C(=O)Nc1ccccc12)N(C)C(=O)[C@@H](NC(=O)OCc1ccccc1)C(C)C [Example 49] | < 0.1 | < 0.1 | 
16 | CC(C)C[C@@H](C(=O)N1C[C@]2(C[C@H]1C#N)C(=O)Nc1ccccc12)N1CC[C@H](NC(=O)OC(C)(C)C)C1=O [Example 10] | 0.1 to 1 |  | EC50 [1, 3]: 0.1 to 1 µM
17 | CC(C)[C@H](NC(=O)c1ccc2c(F)cc(F)cc2n1)C(=O)N(C)[C@@H](CC(C)(C)C)C(=O)N1C[C@]2(C[C@H]1C#N)C(=O)Nc1ccccc12 [Example 109] | < 0.1 | 0.1 to 1 | 
18 | CN(C(=O)[C@H](Cc1ccc(F)cc1)N1CCCNC1=O)[C@@H](CC(C)(C)C)C(=O)N1C[C@]2(C[C@H]1C#N)C(=O)Nc1ccccc12 [Example 69] | < 0.1 | 0.1 to 1 | 
19 | CC(C)C[C@@H](C(=O)N1C[C@]2(C[C@H]1C#N)C(=O)Nc1ccccc12)N(C)C(=O)[C@H](Cc1ccc(F)cc1)NC(=O)c1ccn(C)n1 [Example 19] | < 0.1 | < 0.1 | 
20 | Cc1cc(C(=O)N[C@@H](Cc2ccc(F)cc2)C(=O)N(C)[C@@H](CC(C)C)C(=O)N2C[C@]3(C[C@H]2C#N)C(=O)Nc2ccccc23)no1 [Example 4] | < 0.1 |  | EC50 [1, 3]: < 0.1 µM
21 | CC(C)C(=O)N[C@@H](C)C(=O)N(C)[C@@H](CC(C)(C)C)C(=O)N1C[C@]2(C[C@H]1C#N)C(=O)Nc1ccccc12 [Example 130] | < 0.1 |  | 
22 | [2H]C([2H])([2H])N(C(=O)[C@H](CC1CC1)NC(C)=O)[C@@H](Cc1ccc(F)cc1)C(=O)N1C[C@]2(C[C@H]1C#N)C(=O)Nc1ccccc12 [Example 73] | < 0.1 | < 0.1 | 
23 | CC(=O)N[C@@H](C(=O)N[C@@H](CC(C)(C)C)C(=O)N1C[C@]2(C[C@H]1C#N)C(=O)Nc1ccccc12)C(C)C [Example 89] | 0.1 to 1 | 0.1 to 1 | 
24 | CC(C)C[C@@H](C(=O)N1C[C@]2(C[C@H]1C#N)C(=O)Nc1ccccc12)N(C)C(=O)[C@@H](NC(=O)OCc1ccccc1)C1CCCCC1 [Example 20] | < 0.1 | < 0.1 | 
25 | CN(C(=O)[C@H](Cc1ccc(F)cc1)N1CCCC1=O)[C@@H](CC(C)(C)C)C(=O)N1C[C@]2(C[C@H]1C#N)C(=O)Nc1ccccc12 [Example 67] | < 0.1 | < 0.1 | 

Row | SMILES | IC50 (SARS-CoV-2 3CL-protease) [µM] | EC50 [1, 2] [µM] | other results
26 | Cc1cc(C(=O)N[C@@H](Cc2ccc(F)cc2)C(=O)N[C@@H](CC(C)(C)C)C(=O)N2C[C@]3(C[C@H]2C#N)C(=O)Nc2ccccc23)no1 [Example 105] | < 0.1 |  | 
27 | CC(C)(C)C[C@H](NC(=O)[C@H](CC1CC1)NC(=O)N1CCOCC1)C(=O)N1C[C@]2(C[C@H]1C#N)C(=O)Nc1ccccc12 [Example 84] | < 0.1 |  | 
28 | CC(C)(C)C[C@H](NC(=O)[C@H](CC1CC1)NS(=O)(=O)C1CC1)C(=O)N1C[C@]2(C[C@H]1C#N)C(=O)Nc1ccccc12 [Example 37] | < 0.1 |  | 
29 | CC(C)(C)C[C@H](NC(=O)[C@H](CC1CC1)NC(=O)NC1CC1)C(=O)N1C[C@]2(C[C@H]1C#N)C(=O)Nc1ccccc12 [Example 38] | < 0.1 |  | 
30 | CC(C)(C)C[C@H](NC(=O)[C@H](CC1CC1)N1CCOC1=O)C(=O)N1C[C@]2(C[C@H]1C#N)C(=O)Nc1ccccc12 [Example 119] | < 0.1 |  | 
31 | CC(C)C[C@@H](C(=O)N1C[C@]2(C[C@H]1C#N)C(=O)Nc1ccccc12)N(C)C(=O)C(NC(=O)c1ccc(F)c(F)c1)c1ccccc1 (stereo partly drawn) [Example 118] | < 0.1 |  | 
32 | CC(C)(C)C[C@H](NC(=O)[C@H](CC1CC1)NC(=O)C(F)(F)c1ccccc1)C(=O)N1C[C@]2(C[C@H]1C#N)C(=O)Nc1ccccc12 [Example 79] | < 0.1 |  | 
33 | Cc1cc(C(=O)N[C@@H](CC2CC2)C(=O)N[C@@H](CC(C)(C)C)C(=O)N2C[C@]3(C[C@H]2C#N)C(=O)Nc2ccccc23)no1 [Example 99] | < 0.1 |  | 
34 | CC(C)(C)C[C@H](NC(=O)[C@H](CC1CC1)NC(=O)c1ccc(F)cc1)C(=O)N1C[C@]2(C[C@H]1C#N)C(=O)Nc1ccccc12 [Example 97] | < 0.1 |  | 
35 | CC(C)C[C@@H](C(=O)N1C[C@]2(C[C@H]1C#N)C(=O)Nc1ccccc12)N(C)C(=O)[C@H](NC(=O)C(F)(F)F)c1ccccc1 [Example 117] | < 0.1 |  | 
36 | CC(C)[C@H](NS(=O)(=O)c1ccc(F)cc1)C(=O)N(C)[C@@H](CC(C)(C)C)C(=O)N1C[C@]2(C[C@H]1C#N)C(=O)Nc1ccccc12 [Example 111] |  |  | EC50 ([1]; MRC-5 cells, hCoV-229E MOI 0.05, 6 days at 34° C., ATPlite, duplicate, ranges defined in μM): 0.1 to 1 µM
37 | CC(C)(C)C[C@H](NC(=O)[C@H](Cc1ccc(F)cc1)NC(=O)c1cnccn1)C(=O)N1C[C@]2(C[C@H]1C#N)C(=O)Nc1ccccc12 [Example 104] | < 0.1 |  | 
38 | CN(C)[C@@H](CC1CC1)C(=O)N(C)[C@@H](CC(C)(C)C)C(=O)N1C[C@]2(C[C@H]1C#N)C(=O)Nc1ccccc12 [Example 132] | 0.1 to 1 |  | 
39 | CC(=O)N[C@@H](Cc1ccc(F)cc1)C(=O)N(C)[C@@H](CC(C)(C)C)C(=O)N1C[C@]2(C[C@H]1C#N)C(=O)Nc1ccccc12 [Example 103] | < 0.1 |  | 
40 | CN(C)[C@@H](CC1CC1)C(=O)N[C@@H](CC(C)(C)C)C(=O)N1C[C@]2(C[C@H]1C#N)C(=O)Nc1ccccc12 [Example 106] | > 1 |  | 
41 | CC(C)(C)C[C@H](NC(=O)[C@H](CC1CC1)NC(=O)N1CCCCC1)C(=O)N1C[C@]2(C[C@H]1C#N)C(=O)Nc1ccccc12 [Example 101] | < 0.1 |  | 
42 | CC(C)(C)C[C@H](NC(=O)[C@H](CC1CC1)NC(=O)c1cnccn1)C(=O)N1C[C@]2(C[C@H]1C#N)C(=O)Nc1ccccc12 [Example 98] | < 0.1 |  | 
43 | CC(C)C[C@@H](C(=O)N1C[C@]2(C[C@H]1C#N)C(=O)Nc1ccccc12)N(C)C(=O)[C@@H](NC(=O)C(F)(F)F)c1ccccc1 [Example 116] | < 0.1 |  | 
44 | Cc1ncc(C(=O)N[C@@H](CC2CC2)C(=O)N[C@@H](CC(C)(C)C)C(=O)N2C[C@]3(C[C@H]2C#N)C(=O)Nc2ccccc23)s1 [Example 100] | < 0.1 |  | 
45 | CC(=O)N[C@@H](CC1CC1)C(=O)N[C@@H](CC(C)(C)C)C(=O)N1C[C@]2(C[C@H]1C#N)C(=O)Nc1ccccc12 [Example 95] | < 0.1 |  | 
46 | CN(C(=O)[C@H](CC1CC1)NC(=O)c1cc(OC(F)(F)F)c2ncccc2c1)[C@@H](CC(C)(C)C)C(=O)N1C[C@]2(C[C@H]1C#N)C(=O)Nc1ccccc12 [Example 125] | < 0.1 |  | 
47 | CC(C)C[C@@H](C(=O)N1C[C@]2(C[C@H]1C#N)C(=O)Nc1ccccc12)N(C)C(=O)[C@H](C)NC(=O)c1ccc(F)cc1 [Example 135] | < 0.1 |  | 
48 | CN(C(=O)[C@H](CC1CC1)NC(=O)c1cc(F)c2nn(C3CC3)cc2c1)[C@@H](CC(C)(C)C)C(=O)N1C[C@]2(C[C@H]1C#N)C(=O)Nc1ccccc12 [Example 127] | < 0.1 |  | 
49 | CC(C)(C)C[C@H](NC(=O)[C@H](CC1CC1)NC(=O)C(F)(F)F)C(=O)N1C[C@]2(C[C@H]1C#N)C(=O)Nc1ccccc12 [Example 96] | < 0.1 |  | 
50 | CN(C(=O)[C@H](CC1CC1)NC(=O)c1ccc(OC2CC2)c(OC2CC2)c1)[C@@H](CC(C)(C)C)C(=O)N1C[C@]2(C[C@H]1C#N)C(=O)Nc1ccccc12 [Example 131] | < 0.1 |  | 
